From patent US8389573B2, “Glycyrrhetinic acid derivatives” (Wellington Laboratories Inc., priority 2006, dated 2013) come the findings set out here.

Data set [1] deals with SW480 colon cancer cells. In words: Cell proliferation assay in SW480 cells. In kind it is cell-based. The settings on record: Homo sapiens, read-out: IC50, growth inhibition / cell proliferation. Here is the method:
Human colon carcinoma cell lines SW480 and HT29 were provided by Dr. Stan Hamilton, M.D. Anderson Cancer Center (Houston, Tex.); SW-480 and HT-29 cells were maintained in Dulbecco's modified Eagle's medium nutrient mixture with Ham's F-12 (DMEM/Ham's F-12; Sigma-Aldrich, St. Louis, Mo.) with phenol red supplemented with 0.22% sodium bicarbonate, 0.011% sodium pyruvate, and 5% fetal bovine serum and 10 ml/l 100× antibiotic antimycotic solution (Sigma-Aldrich). Cells were maintained at 37° C. in the presence of 5% CO2.
SW480 and HT 29 Cells (2×10^4) were plated in 12-well plates, and media were replaced the next day with DMEM/Ham's F-12 media containing 2.5% charcoal-stripped FBS and either vehicle (DMSO) or the indicated ligand and dissolved in DMSO. Fresh media and compounds were added every 48 h. Cells were counted at the indicated times using a Coulter Z1 cell counter. Each experiment was done in triplicate, and results are expressed as means±S.E. for each determination

Data set [2] deals with T1, PPARγ-coactivator interactions (Homo sapiens, UniProt P37231).
T1 construct: expressed in transfected cells; host or cells: SW480 cells, transient transfection (LipofectAMINE)
T1 sequence (P37231 238-503 limits assumed): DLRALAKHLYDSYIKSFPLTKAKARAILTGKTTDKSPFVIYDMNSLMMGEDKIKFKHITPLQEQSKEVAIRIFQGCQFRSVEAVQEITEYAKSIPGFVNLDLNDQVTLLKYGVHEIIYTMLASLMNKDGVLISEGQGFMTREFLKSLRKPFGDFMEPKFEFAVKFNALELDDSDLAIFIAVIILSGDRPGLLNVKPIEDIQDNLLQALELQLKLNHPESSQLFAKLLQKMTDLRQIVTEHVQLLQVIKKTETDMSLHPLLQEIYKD
In words: Mammalian two-hybrid assay (VP-PPARγ, GAL4-coactivator) in SW480 cells. In kind it is cell-based. The protocol:
SW480 and HT29 cell lines were plated in 12-well plates at 1×10^5 cells/well in DMEM/F-12 media supplemented with 2.5% charcoal-stripped fetal bovine serum. After growth for 16 h, various amounts of DNA, i.e. Gal4Luc (0.4 μg), β-gal (0.04 μg), VP-PPARγ (0.04 μg), pMSRC1 (0.04 μg), pMSRC2 (0.04 μg), pMSRC3 (0.04 μg), pMPGC-1 (0.04 μg), pMDRIP205 (0.04 μg), and pMCARM-1 (0.04 μg) were transfected by LipofectAMINE (Invitrogen) according to the manufacturer's protocol. After 5 h of transfection, the transfection mix was replaced with complete media containing either vehicle (DMSO) or the indicated ligand for 20-22 h. Cells were then lysed with […] of 1× reporter lysis buffer, and 30 μl of cell extract was used for luciferase and β-galactosidase assays. Lumicount was used to quantitate luciferase and β-galactosidase activities, and the luciferase activities were normalized to β-galactosidase activity.

The test system of data set [3] is Sp protein levels in RKO cells. In words: Sp protein expression (gel) in RKO cells. In kind it is cell-based.
Data set [4] relates to AR promoter. In words: AR-luc promoter luciferase assay in LNCaP cells. In kind it is cell-based. An excerpt: Transfections: The Gal4 reporter construct containing 5× Gal4 response elements (pGal4) was kindly provided by Dr. Marty Mayo (University of North Carolina, Chapel Hill, N.C.). The Gal4 DBD-PPARγ construct was a gift of Dr. Jennifer L. Oberfield (Glaxo Wellcome Research and Development, Research Triangle Park, N.C.). The PPRE-luc construct contains three tandem PPREs with a minimal TATA sequence linked to the luciferase gene in pGL2. The AR-luc construct containing the −5400 to +580 region of the androgen receptor promoter was provided by Dr. Donald J. Tindall (Mayo Clinic, Rochester, Minn.), and the PSA-luc construct containing the 5.8-kilobase region of the PSA promoter was provided by Dr. Hong-Wu Cheng (University of California, Davis, Calif.). LNCaP cells (1×10^5) were seeded in 12-well plates in DMEM/Ham's F-12 media supplemented with 2.5% charcoal-stripped FBS and grown overnight. Transient transfections were performed using Lipofectamine reagent (Invitrogen) according to the protocol provided by the manufacturer. Transfection studies were performed using 0.4 μg of Gal4Luc, 0.04 μg of β-galactosidase, 0.04 μg of Gal4 DBD-PPARγ, 0.4 μg of AR-luc, and 0.3 μg of PSA-luc. […] A Lumicount luminometer (PerkinElmer Life and Analytical Sciences) was used to quantify luciferase and β-galactosidase activities, and the luciferase activities were normalized to β-galactosidase activity.

As usually defined, the melting point is the temperature, or range, at which the solid turns liquid. On to `COC(=O)[C@@]1(C)CC[C@]2(C)CC[C@]3(C)C(=CC(=O)[C@@H]4[C@@]5(C)C=C(C#N)C(=O)C(C)(C)[C@@H]5CC[C@]43C)[C@@H]2C1` [β-CDODA-Me, Methyl 2-cyano-3,11-dioxo-18β-oleana-1,12-dien-30-oate], for which the melting point was in the range of 243 to 245 °C. In data set [1], the IC50 is 0.2 to 0.5 µM. For the same compound, in data set [2], the “PPARγ interaction with coactivators PGC-1 and SRC-1” value was “induced transactivation”; the “ligand-induced interactions of SRC-2, SRC-3, CARM1, TRAP220 and SMRT with PPARγ” value is listed as “not observed”. Also, in data set [3], the Sp protein expression entry is on record as “decreases Sp protein expression”, the VEGF protein expression entry is given as “decreased VEGF protein expression” and the “decrease of Sp protein expression with T007 or proteasome inhibitors” value is given as “not reversed”. Also, the “luciferase activity of AR-Luc construct” value in data set [4] was “decreased luciferase activity”.
